Consider 10 molecules from article PMC9529985, “Eco-friendly methods of synthesis and preliminary biological evaluation of sulfonamide derivatives of cyclic arylguanidines” (Ultrasonics Sonochemistry, 2022).

The nature of data set [1]: PAMPA passive permeability. It is filed as in vitro ADME. The conditions noted are these: PBS pH 7.4, 5 h, room temperature. The method, then:
The ADME-Tox parameters of 10f were analyzed according to described previously protocols, [45] and included: Parallel Artificial Membrane Permeability Assay (PAMPA) passive permeability testing, the influence on CYP3A4 activity, metabolic stability in mouse liver microsomes, and hepatotoxicity assessment with HepG2 cells. The pre-coated PAMPA Plate System Gentest was sourced from Corning (Tewksbury, MA, USA). […] The plate was incubated at room temperature for 5 h without stirring. Then, 50 μL was aspirated from both Acceptor (A) and Donor (D) wells and then diluted with a 50 µL solution of an internal standard (IS). The concentrations of the tested compounds in the A and D wells were estimated with an LC/MS Waters ACQUITY™ TQD system with the TQ Detector (Waters, Milford, USA). The Pe values were estimated according to the proper formulas provided by Corning and described previously in the literature.
For orientation: The PAMPA barrier holds no transporters, so it reflects passive diffusion.

Data set [2] is described as follows: Metabolic stability in mouse liver microsomes (MLMs). It is filed as in vitro ADME. The settings on record: for Metabolic pathway: metabolites identified by UPLC-MS; for remaining at 2 h, 50 µM: mouse, liver microsomes, MLMs 1 mg/ml. The protocol:
The ADME-Tox parameters of 10f were analyzed according to described previously protocols, [45] and included: Parallel Artificial Membrane Permeability Assay (PAMPA) passive permeability testing, the influence on CYP3A4 activity, metabolic stability in mouse liver microsomes, and hepatotoxicity assessment with HepG2 cells.
The metabolic stability of 10f was estimated with mouse liver microsomes (MLMs) (Sigma-Aldrich, St. Louis, MO, USA). The tested compound (50 µM) was incubated in the presence of MLMs (1 mg/ml) for 120 min in a buffer (10 mM Tris–HCl buffer at 37 °C). Then, to terminate the reaction, cold methanol was added to the reaction mixture. The precipitated MLMs were centrifuged and the supernatant was analyzed with a LC/MS Waters ACQUITY™ TQD system with the TQ Detector (Waters, Milford, USA).
On the technique in general: Liver microsomes are vesicles of endoplasmic reticulum, rich in cytochrome P450 enzymes.

Data set [3] relates to human astrocytoma cell line 1321 N1. Put plainly: MTS cytotoxicity test in 1321 N1 astrocytoma cells. It is filed as cell-based. The settings on record: 1321 N1 cells; for concentration at which activity (statistically significant suppression of cell viability) was seen / IC50: MTS; for viability of the cells compared to vehicle control: 24 h exposure; for IC50: 50 % decrease relative to the maximum inhibition observed, read-out: IC50 (cell viability). The protocol: (§1) The cytotoxic properties of newly synthetized compounds were assessed in human astrocytoma cell line 1321 N1 (RRID:CVCL_0110, European Collection of Authenticated Cell Cultures, ECACC:86030402) and human breast adenocarcinoma cell line MDA-MB-231 (RRID:CVCL_0062; ATCC:HTB-26). ECACC and ATCC perform thorough cell line authentication utilizing Short Tandem Repeat (STR) profiling. Upon receipt of the cell lines, the cells were expanded for a few passages to enable the generation of new frozen stocks. The cells were resuscitated as needed and used for<6 months after resuscitation (no>15 passages). Cell line 1321 N1 was cultured in high-glucose (4500 mg/L) Dulbecco's modified Eagle's medium (DMEM) supplemented with 10 % fetal bovine serum (FBS). The MDA-MB-231 cells were maintained in RPMI-1640 with 10 % FBS. All cell culture media were additionally fortified with penicillin (100 U/mL), streptomycin (100 µg/mL), and amphotericin B (250 ng/mL) to prevent bacterial and yeast contamination. The cell culture media and supplements used in this study were purchased from Sigma-Aldrich. The cells were maintained at 37 °C in a humidified 5 % incubator in an atmosphere of 5 % CO2 and 95 % air.
The cells were subcultured upon reaching the confluency of about 80 %. Cell detachment was facilitated with TrypLE solution (Thermo Fisher Scientific). The cells were counted in a Z2 particle counter (Beckman Coulter), then plated at 5,000 cells/well in 96-well plates (Eppendorf) in 100 µL of full growth medium and cultured overnight to enable cell attachment. Next day, the cells were subjected to either vehicle (0.1 % DMSO) or our compounds of interest for 24, 48, or 72 h. The assessment of cell viability was performed by adding 20 µL/well of the mixture of 3-(4,5-dimethylthiazol-2-yl)-5-(3-carboxymethoxyphenyl)-2-(4-sulfophenyl)–2H-tetrazolium, inner salt (MTS) and phenazine ethosulfate from Promega (#G3580). After 3 h of incubation, the absorbance was recorded at 490 nm using Synergy H1 plate reader (Biotek) The experiments were carried out in quadruplicates and were repeated three times. The obtained values were normalized to vehicle control and plotted.
The IC50 values were calculated with GraphPad Prism 8.0.1 software (nonlinear regression, log(inhibitor) vs normalized response) as the dose that causes a 50 % decrease in cell viability relative to the maximum inhibition observed. Statistical significance determination was evaluated with GraphPad Prism 5.0.1 software using one-way ANOVA, followed by Bonferroni’s comparison test (p < 0.05).

A short description of data set [4]: Metabolic stability in mouse liver microsomes (MLMs). It is filed as in vitro ADME. The conditions noted are these: TRIS-HCl pH 7.4 buffer solution without microsomes, 120 min.
Data set [5] has as its system HepG2 human hepatoma cell line. Kind of data set: Hepatotoxicity, MTS assay in HepG2 cells. It is filed as cell-based. The conditions noted are these: 72 h (Fig. 6 legend). The method, then: Hepatotoxicity was evaluated by means of an MTS assay described above (section 23) with a HepG2 human hepatoma cell line (ATCC:HB-8065), [48]. […] Compound 10f was tested in a single experiment in quadruplicate.
Background: Tetrazolium dyes change colour on reduction, which living cells bring about.

Data set [6] has as its system human breast adenocarcinoma cell line MDA-MB-231. Kind of data set: MTS cytotoxicity test in MDA-MB-231 cells. It is filed as cell-based. The conditions noted are these: 24 h, read-out: IC50 (cell viability). The method, then:
as §1, with “All cell culture media were additionally fortified with penicillin (100 U/mL), streptomycin (100 µg/mL), and amphotericin B (250 ng/mL) to prevent bacterial and yeast contamination. The cell culture media and supplements used in this study were purchased from Sigma-Aldrich. The cells were maintained at 37 °C in a humidified 5 % incubator in an atmosphere of 5 % CO2 and 95 % air.” left out
The cells were subcultured upon reaching the confluency of about 80 %. […] The cells were counted in a Z2 particle counter (Beckman Coulter), then plated at 5,000 cells/well in 96-well plates (Eppendorf) in 100 µL of full growth medium and cultured overnight to enable cell attachment. […] After 3 h of incubation, the absorbance was recorded at 490 nm using Synergy H1 plate reader (Biotek) The experiments were carried out in quadruplicates and were repeated three times. […]

Read-outs that look alike come from different tables or passages of the source.

Regarding `Cn1c(=O)c2c(ncn2C)n(C)c1=O` [caffeine, reference compound], the “permeability coefficient Pe” value in data set [1] (200 µM) is 12.2 ± 0.9 × 10^-6 cm/s.

With `O=S(=O)(Nc1ncc2ccccc2n1)c1cccc2ccccc12` [Dehydrogenated-10f, N-(quinazolin-2-yl)naphthalene-1-sulfonamide], the Metabolic pathway result in data set [2] (MLMs) is given as “double hydroxylation”. In addition, the amount remaining (commonly the share of the starting amount still present when the sample was taken) at 2 h, 50 µM in data set [2] (120 min) was 17.5%.

For `O=S(=O)(Nc1nc2ccccc2[nH]1)c1ccccc1` [10a, N-(1H-benzimidazol-2-yl)benzenesulfonamide], the melting point (usually the temperature of the solid-liquid transition) was greater than 300 °C.

For the molecule `Nc1nc2cc(Cl)ccc2n1S(=O)(=O)c1cccc2ccccc12` [11d, 5-chloro-1-(naphthalene-1-sulfonyl)-1H-benzimidazol-2-amine], the melting point is 225 to 229 °C. Besides, the “concentration at which activity (statistically significant suppression of cell viability) was seen” value in data set [3] (24 h) is given as 1 µM.

`O=S(=O)(NC1=NCc2ccccc2N1)c1ccccc1` [10e, N-(1,4-dihydroquinazolin-2-yl)benzenesulfonamide] returned a melting point of 182 to 186 °C.

Turning to `Nc1nc2ccccc2n1S(=O)(=O)c1ccc2ccccc2c1` [11c, 1-(naphthalene-2-sulfonyl)-1H-benzimidazol-2-amine], the melting point lay within 188 to 194 °C.

For the molecule `O=S(=O)(NC1=NCc2cc(Cl)ccc2N1)c1ccc2ccccc2c1` [10h, N-(6-chloro-1,4-dihydroquinazolin-2-yl)naphthalene-2-sulfonamide], the melting point fell in the range of 207 to 209 °C.

As to `O=S(=O)(NC1=NCc2ccccc2N1)c1cccc2ccccc12` [10f, N-(1,4-dihydroquinazolin-2-yl)naphthalene-1-sulfonamide], the “dehydrogenation in control sample” value in data set [4] was found to be 5%. The “hepatotoxicity (in words)” value in data set [5] (HepG2, 1–10 µM) was “did not exhibit hepatotoxic properties”. Moreover, the “effect on cell viability (in words)” value in data set [5] (HepG2, 50 or 100 µM) is on record as “statistically significant decrease in cells viability”. For the same molecule, in data set [1] (read-out: permeability coefficient Pe), the Papp at 5 h, 200 µM came to 5 ± 1.5 ×10⁻⁶ cm/s. Besides, the “concentration at which activity (statistically significant suppression of cell viability) was seen” value in data set [3] (24 h) was 1 µM. In addition, in data set [3], the “viability of the cells compared to vehicle control” value is 48.0%. The IC50 (in general, the concentration that inhibits the measured activity by half) turned out to be 8220 nM in data set [3] (Homo sapiens, 24 h) and 130 nM in data set [3] (Homo sapiens, 72 h). The viability at 50 µM in data set [3] (Homo sapiens, 72 h, 50 µM, read-out: cells still viable) is 32%. In data set [2] (MLMs, 120 min), the “metabolic stability (in words)” value is reported as “unstable”. The molecule also returned a metabolized in data set [2] (MLMs, 120 min incubation, UPLC) of 97%. The Metabolic pathway result in data set [2] (MLMs) was “double hydroxylation and double bound reduction”. In data set [2] (120 min), this molecule returned a fraction remaining at 2 h, 50 µM of 3%.

`O=S(=O)(NC1=NCc2ccccc2N1)c1ccc2ccccc2c1` [10g, N-(1,4-dihydroquinazolin-2-yl)naphthalene-2-sulfonamide] showed a melting point greater than 300 °C.

For the molecule `COc1cccc2c1C(=O)c1c(O)c3c(c(O)c1C2=O)C[C@@](O)(C(=O)CO)C[C@@H]3O[C@H]1C[C@H](N)[C@H](O)[C@H](C)O1` [doxorubicin, reference compound], the IC50 amounted to 1400 nM in data set [6] and 1100 nM in data set [3] (Homo sapiens, 24 h). Besides, the “viability of the cells compared to vehicle control” value in data set [3] was determined as 47.5%.
